Drawing on patent US9351965B2, “Indazole derivatives useful as ERK inhibitors” (Merck Sharp & Dohme Corp., priority 2010, dated 2016), this text covers IC50 for 26 compounds.

Each structure is given as a SMILES string.

Sequence of fully phosphorylated, active Mouse ERK2 protein (P63085 whole entry): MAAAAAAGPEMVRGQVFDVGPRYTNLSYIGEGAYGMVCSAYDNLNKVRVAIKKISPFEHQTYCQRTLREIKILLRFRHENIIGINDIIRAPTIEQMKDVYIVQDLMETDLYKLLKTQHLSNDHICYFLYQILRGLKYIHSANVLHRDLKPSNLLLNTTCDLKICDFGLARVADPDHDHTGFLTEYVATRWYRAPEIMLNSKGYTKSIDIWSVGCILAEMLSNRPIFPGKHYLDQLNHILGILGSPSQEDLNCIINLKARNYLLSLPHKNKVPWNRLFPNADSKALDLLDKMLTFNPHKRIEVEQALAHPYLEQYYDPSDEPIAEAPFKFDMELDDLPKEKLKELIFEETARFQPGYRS

This assay has as its target fully phosphorylated, active Mouse ERK2 protein (Mus musculus (Mouse), UniProt P63085). Briefly: Active ERK2 (aERK) IMAP assay. Format: biochemical. The note with it: IMAP fluorescence polarization; 30 μM ATP; 30 minute pre-incubation. Here is the method:
14 μl of kinase buffer (10 mM Tris.HCl pH 7.2, 10 mM MgCl2, 0.01% Tween-20, 1 mM DTT) containing 0.4 ng unphosphorylated Mouse ERK2 protein was added to each well of a black 384-well assay plate. […] DMSO concentration during initial incubation is 6.7%. […] DMSO concentration during ERK activation was 4%. After one hour, reactions were terminated by addition of 60 μl IMAP detections beads in binding buffer (Molecular Devices). Binding was allowed to equilibrate for 30 minutes before reading the plate on an LJL Analyst Fluorescence Polarization plate reader.
Active ERK2 (aERK) Assay:
Activated ERK2 activity was also determined in the IMAP assay format using the procedure outlined above. […] Reactions proceeded for 30 minutes before termination by addition of 60 μl IMAP detection beads in binding buffer. Plates were read as above after 30 minute binding equilibration.
Broadly, the IC50 is the concentration that inhibits the measured activity by half. Lower therefore signals greater potency. Take `Cc1cc(-c2n[nH]c3ccc(C(=O)NC4CCCC(Cn5cc6cc(F)ccc6n5)C4)cc23)ccn1` (mixture of isomers) [compound 124, N-[cis/trans-3-[(5-fluoro-2H-indazol-2-yl)methyl]cyclohexyl]-3-(2-methyl-4-pyridinyl)-1H-indazole-5-carboxamide]: the IC50 turned out to be 264 nM.

`Cc1cc(-c2n[nH]c3ccc(C(=O)NC4CCCC(Cn5ncc6ccc(C(F)(F)F)cc65)C4)cc23)ccn1` (mixture of isomers) [compound 125, 3-(2-methyl-4-pyridinyl)-N-[cis/trans-3-[[6-(trifluoromethyl)-1H-indazol-1-yl]methyl]cyclohexyl]-1H-indazole-5-carboxamide] returned an IC50 of 1000 nM.

On to `Cc1cc(-c2n[nH]c3ccc(C(=O)NC4CCCC(Cn5ncc6cccc(F)c65)C4)cc23)ccn1` (mixture of isomers) [compound 126, N-[cis/trans-3-[(7-fluoro-1H-indazol-1-yl)methyl]cyclohexyl]-3-(2-methyl-4-pyridinyl)-1H-indazole-5-carboxamide], for which the half-inhibitory concentration (IC50) was 56.6 nM.

Compound `CCOC(=O)C1(Cc2ccccc2F)CCCC(NC(=O)c2ccc3[nH]nc(-c4ccnc(C)c4)c3c2)C1` (mixture of isomers) [compound 128, ethyl cis/trans-1-[(2-fluorophenyl)methyl]-3-[[[3-(2-methyl-4-pyridinyl)-1H-indazol-5-yl]carbonyl]amino]cyclo-hexanecarboxylate] showed an IC50 of 1000 nM.

`Cc1cc(-c2n[nH]c3ccc(C(=O)NC4CCCC(CO)(Cc5ccccc5F)C4)cc23)ccn1` (mixture of isomers) [compound 130, N-[cis/trans-3-[(2-fluorophenyl)methyl]-3-(hydroxymethyl)cyclohexyl]-3-(2-methyl-4-pyridinyl)-1H-indazole-5-carboxamide] came in with a half-maximal inhibitory concentration (IC50) of 1000 nM.

In turn, `Cc1cc(-c2n[nH]c3ccc(C(=O)NC4CCCC(Cc5ccccc5F)(C(=O)O)C4)cc23)ccn1` (mixture of isomers) [compound 131, cis/trans-1-[(2-fluorophenyl)methyl]-3-[[[3-(2-methyl-4-pyridinyl)-1H-indazol-5-yl]carbonyl]amino]cyclo-hexanecarboxylic acid] registered a half-maximal inhibitory concentration (IC50) of 1000 nM.

`Cc1cc(-c2n[nH]c3ccc(C(=O)NC4CCCC(F)(Cc5ccccc5F)C4)cc23)ccn1` (racemic) [compound 54, N-[3-fluoro-3-[(2-fluorophenyl)methyl]cyclohexyl]-3-(2-methyl-4-pyridinyl)-1H-indazole-5-carboxamide (racemic)]: the midpoint of inhibition, the IC50, lay at 1000 nM.

Compound `O=C(N[C@H]1CCC[C@@](O)(Cc2ccccc2F)C1)c1ccc2[nH]nc(-c3ccc4nccn4c3)c2c1` (relative stereo) [compound 9, N-[trans-3-[(2-fluorophenyl)methyl]-3-hydroxycyclohexyl]-3-imidazo[1,2-a]pyridin-6-yl-1H-indazole-5-carboxamide] came in with a concentration for half-maximal inhibition (IC50) of 48.7 nM.

Turning to `Cn1cc2cc(-c3n[nH]c4ccc(C(=O)N[C@@H]5CCC[C@@](O)(Cn6ccnc6)C5)cc34)ccc2n1` (relative stereo) [compound 57, N-[cis-3-hydroxy-3-(1H-imidazol-1-ylmethyl)cyclohexyl]-3-(2-methyl-2H-indazol-5-yl)-1H-indazole-5-carboxamide], the IC50 was 37.8 nM.

The compound `Cn1cc2cc(-c3n[nH]c4ccc(C(=O)N[C@@H]5CCC[C@](O)(Cn6ccnc6)C5)cc34)ccc2n1` (relative stereo) [compound 58, N-[trans-3-hydroxy-3-(1H-imidazol-1-ylmethyl)cyclohexyl]-3-(2-methyl-2H-indazol-5-yl)-1H-indazole-5-carboxamide] displayed an IC50 of 62 nM.

`Cn1cc2cc(-c3n[nH]c4ccc(C(=O)N[C@@H]5CCC[C@](O)(Cn6cccn6)C5)cc34)ccc2n1` (relative stereo) [compound 59, N-[trans-3-hydroxy-3-(1H-pyrazol-1-ylmethyl)cyclohexyl]-3-(2-methyl-2H-indazol-5-yl)-1H-indazole-5-carboxamide] registered a 50% inhibitory concentration (IC50) of 67.4 nM.

`Cn1cc2cc(-c3n[nH]c4ccc(C(=O)N[C@@H]5CCC[C@@](O)(Cn6cccn6)C5)cc34)ccc2n1` (relative stereo) [compound 60, N-[cis-3-hydroxy-3-(1H-pyrazol-1-ylmethyl)cyclohexyl]-3-(2-methyl-2H-indazol-5-yl)-1H-indazole-5-carboxamide]: the IC50 came to 151 nM.

For `Cn1cc2cc(-c3n[nH]c4ccc(C(=O)N[C@@H]5CCC[C@](O)(Cn6cnc7ccccc76)C5)cc34)ccc2n1` (relative stereo) [compound 61, N-[trans-3-(1H-benzimidazol-1-ylmethyl)-3-hydroxycyclohexyl]-3-(2-methyl-2H-indazol-5-yl)-1H-indazole-5-carboxamide], the IC50 came out at 19.3 nM.

For the compound `Cn1cc2cc(-c3n[nH]c4ccc(C(=O)N[C@@H]5CCC[C@@](O)(Cn6cnc7ccccc76)C5)cc34)ccc2n1` (relative stereo) [compound 62, N-[cis-3-(1H-benzimidazol-1-ylmethyl)-3-hydroxycyclohexyl]-3-(2-methyl-2H-indazol-5-yl)-1H-indazole-5-carboxamide], inhibition was half-maximal at 19.9 nM (IC50). This IC50 and that of the compound before are within 1.5-fold of each other.

Compound `Cc1cc(-c2n[nH]c3ccc(C(=O)N[C@@H]4CCC[C@](O)(Cn5cncn5)C4)cc23)ccn1` (relative stereo) [compound 63, N-[trans-3-hydroxy-3-(1H-1,2,4-triazol-1-ylmethyl)cyclohexyl]-3-(2-methyl-4-pyridinyl)-1H-indazole-5-carboxamide] had an IC50 of 197 nM.

Regarding `Cc1cc(-c2n[nH]c3ccc(C(=O)N[C@@H]4CCC[C@@](O)(Cn5cncn5)C4)cc23)ccn1` (relative stereo) [compound 64, N-[cis-3-hydroxy-3-(1H-1,2,4-triazol-1-ylmethyl)cyclohexyl]-3-(2-methyl-4-pyridinyl)-1H-indazole-5-carboxamide], the IC50 is 99.9 nM.

As to `Cc1cc(-c2n[nH]c3ccc(C(=O)N[C@@H]4CCC[C@](O)(Cn5c(C(F)(F)F)nc6ccccc65)C4)cc23)ccn1` (relative stereo) [compound 67, N-[trans-3-hydroxy-3-[[2-(trifluoromethyl)-1H-benzimidazol-1-yl]methyl]cyclohexyl]-3-(2-methyl-4-pyridinyl)-1H-indazole-5-carboxamide], half-maximal inhibition (IC50) was put at 436 nM.

In the case of `Cc1cc(-c2n[nH]c3ccc(C(=O)N[C@@H]4CCC[C@](O)(Cn5cnc6ncccc65)C4)cc23)ccn1` (relative stereo) [compound 71, N-[trans-3-hydroxy-3-(1H-imidazo[4,5-b]pyridin-1-ylmethyl)cyclohexyl]-3-(2-methyl-4-pyridinyl)-1H-indazole-5-carboxamide], the IC50 stood at 464 nM.

On to `Cc1cc(-c2n[nH]c3ccc(C(=O)N[C@@H]4CCC[C@](O)(Cn5cnc6cccnc65)C4)cc23)ccn1` (relative stereo) [compound 72, N-[trans-3-hydroxy-3-(3H-imidazo[4,5-b]pyridin-3-ylmethyl)cyclohexyl]-3-(2-methyl-4-pyridinyl)-1H-indazole-5-carboxamide], for which the IC50 was found to be 537 nM.

`Cc1cc(-c2n[nH]c3ccc(C(=O)N[C@@H]4CCC[C@](O)(Cn5cc6cccnc6n5)C4)cc23)ccn1` (relative stereo) [compound 73, N-[trans-3-hydroxy-3-(2H-pyrazolo[3,4-b]pyridin-2-ylmethyl)cyclohexyl]-3-(2-methyl-4-pyridinyl)-1H-indazole-5-carboxamide] registered an IC50 of 616 nM.

`Cc1cc(-c2n[nH]c3ccc(C(=O)N[C@@H]4CCC[C@](O)(Cn5ncc6ccncc65)C4)cc23)ccn1` (relative stereo) [compound 74, N-[trans-3-hydroxy-3-(1H-pyrazolo[3,4-c]pyridin-1-ylmethyl)cyclohexyl]-3-(2-methyl-4-pyridinyl)-1H-indazole-5-carboxamide] returned an IC50 of 792 nM. This IC50 and that of the compound before are within 1.5-fold of each other.

`Cc1cc(-c2n[nH]c3ccc(C(=O)N[C@@H]4CCC[C@](O)(Cn5c(C)nc6cnccc65)C4)cc23)ccn1` (relative stereo) [compound 76, N-[trans-3-hydroxy-3-[(2-methyl-1H-imidazo[4,5-c]pyridin-1-yl)methyl]cyclohexyl]-3-(2-methyl-4-pyridinyl)-1H-indazole-5-carboxamide] returned an IC50 of 136 nM.

`Cc1cc(-c2n[nH]c3ccc(C(=O)N[C@@H]4CCC[C@@](O)(Cn5c(C)nc6cnccc65)C4)cc23)ccn1` (relative stereo) [compound 77, N-[cis-3-hydroxy-3-[(2-methyl-1H-imidazo[4,5-c]pyridiN-1-yl)methyl]cyclohexyl]-3-(2-methyl-4-pyridinyl)-1H-indazole-5-carboxamide] displayed an IC50 of 1000 nM.

The compound `Cc1cc(-c2n[nH]c3ccc(C(=O)N[C@@H]4CCC[C@@](O)(Cn5cc6cccnc6n5)C4)cc23)ccn1` (relative stereo) [compound 78, N-[cis-3-hydroxy-3-(2H-pyrazolo[3,4-b]pyridin-2-ylmethyl)cyclohexyl]-3-(2-methyl-4-pyridinyl)-1H-indazole-5-carboxamide] showed an IC50 of 591 nM.

The compound `Cc1cc(-c2n[nH]c3ccc(C(=O)N[C@@H]4CCC[C@@](O)(Cn5ncc6cccnc65)C4)cc23)ccn1` (relative stereo) [compound 79, N-[cis-3-hydroxy-3-(1H-pyrazolo[3,4-b]pyridin-1-ylmethyl)cyclohexyl]-3-(2-methyl-4-pyridinyl)-1H-indazole-5-carboxamide] returned an IC50 of 8.6 nM.

As to `Cc1cc(-c2n[nH]c3ccc(C(=O)N[C@@H]4CCC[C@@](O)(Cn5ncc6ccncc65)C4)cc23)ccn1` (relative stereo) [compound 80, N-[cis-3-hydroxy-3-(1H-pyrazolo[3,4-c]pyridin-1-ylmethyl)cyclohexyl]-3-(2-methyl-4-pyridinyl)-1H-indazole-5-carboxamide], the IC50 was found to be 35.1 nM.
